# Measurements from patent publication US20110224221A1, “HEMATOPOIETIC PROTECTION AGAINST IONIZING RADIATION USING SELECTIVE CYCLIN-DEPENDENT KINASE 4/6 INHIBITORS” (priority 2008, published 2011).
# Entries after “also recorded” stand apart in the source; their conditions may differ.
# What was measured:
# [1] = tested on: mice exposed to total body irradiation; experiment: Survival after total body irradiation (TBI); type: in vivo
# From the text: (§1) For TBI experiments, mice were irradiated using a ^137Cs source (AECL Gammacell 40 Irradiator, Atomic Energy of Canada Ltd, Mississauga, Ontario, Canada). Delivered doses were at or near the empirically determined LD90 of 7.5 Gy, consistent with prior studies. See Na Nakorn et al., J. Clin. Invest., 109, 1579-1585 (2002); Herodin et al., Blood, 101, 2609-2616 (2003); Uckun et al., Blood, 75, 638-645 (1990); and Wang et al., Proc. Natl. Acad. Sci., USA, 94, 14590-14595 (1997). Peripheral blood was collected using a tail vein nick for complete blood cells (CBCs) and analyzed with a HemaTrue analyzer (Heska Co., Loveland, Colo., United States of America).
# Adult female C57Bl/6 mice were exposed to 6.5, 7.5, or 8.5 Gy with or without PD0332991 treatment and followed for 40 days post-TBI. The LD90 for IR was determined to be about 7.5 Gy. […] See FIGS. 14A for C3H and FIG. 2E for FVB/n. […] It appears that PQ resulting from transient CDK4/6 inhibition around the time of TBI enhances radioresistance in vivo.
# More particularly, animals were given a CDK4/6 inhibitor at different times relative to TBI at the LD90. As radioprotection was observed when animals were treated with two doses pre- and one dose post-TBI (see FIGS. 13A-13B), further studies were undertaken to determine which of these doses was most important for radioprotection. Without being bound to any one theory, it appeared that most of the benefit of the treatment schedule was associated PD 0332991 treatment immediately prior to or contemporaneous with TBI. […] Although there are a few known compounds that protect from radiotoxicity when administered prior to IR (i.e. “radioprotectants”) (see Burdelya et al., Science, 320, 226-230 (2008); and Weiss and Landauer, Int J. Radiat. Biol., 85, 539-573 (2009)), previous to the presently disclosed subject matter, no known hematologic “radiomitigants” (i.e., compounds that reduce hematotoxicity when administered many hours after an exposure to TBI) are believed to have been reported.
# [2] = tested on: peripheral blood lineages; parameters: species or system mice; conditions: mouse, in vivo
# From the text: Data are shown as a moving average with each point representing the mean of three consecutive […]. Error bars are +/− of the standard error of the mean for all data points associated with the moving average. The solid black bar in the lower left of each graph indicates the duration of the PD0332991 treatment. Data from PD0332991 treated mice is shown by the unshaded squares. For comparison, data from mice that had not been treated with PD0332991 is shown in shaded circles.
# as §1
# These observations are consistent with the kinetics and degree of myelosuppression seen when tumor bearing mice (see Ramsey et al., Cancer Res., 67, 4732-4741 (2007); and Fry et al., Mol. Cancer Ther., 3, 1427-1438 (2004)) and human patients with malignancies (see O'Dwyer et al., “A Phase I does escalation trial of a daily oral CDK4/6 Inhibitor PD 0332991” in American Society of Clinical Oncology (ASCO, Chicago, Ill., 2007)) are serially treated with PD0332991. The noted decreases might be expected to enhance the adverse effects of radiation therapy. However, unexpectedly as shown herein, hematopoietic cells are protected from adverse effects.
# pancreatic islet = conditions: same dose and schedule (150 mg/kg daily); cited from earlier work
# [3] = tested on: TyrRAS+Ink4a/Arf−/− melanoma; conditions: mouse, in vivo; cited from earlier work
# [4] = 8.5 Gy TBI, single dose four hours prior to IR
structure (smiles),measurement,setting,value
"CC(=O)c1c(C)c2cnc(Nc3ccc(N4CCNCC4)cn3)nc2n(C2CCCC2)c1=O [PD0332991, 6-acetyl-8-cyclopentyl-5-methyl-2-(5-piperazin-1-yl-pyridin-2-ylamino)-8H-pyrido-[2,3-d]-pyrimidin-7-one]",survival,[1]; 6.5 Gy,All mice survived
same,survival,"[1]; 7.5 Gy, C57Bl/6, followed 40 days post-TBI",all treated mice survived
same,survival,"[1]; 7.5 Gy, multiple doses around IR, within 40 days",~100%
same,survival,"[1]; 7.5 Gy, single dose 4 hours prior to IR",Enhanced survival; also recorded: survival similar to animals treated on the multi-dose
same,survival,"[1]; 7.5 Gy, single dose 20 hours after TBI",significantly enhanced
same,survival,"[1]; 7.5 Gy, single time 0 dose",survival similar to animals treated on the multi-dose
same,median survival,[1]; [4],19 days
same,term survival,[1]; [4],13%
same,term survival,"[1]; 8.5 Gy TBI, single dose four hours prior to IR, listed as PD 0332991",about 30%
same,time to begin of improvement upon cessation,[2],≤ 4 days
same,treatment time after which decrease became apparent,[2],8 days
same,"erythroid, platelet and myeloid lineages","[2]; po, 150 mg/kg",modest decrease
same,proliferation in CDK4/6 dependent normal murine tissues such as the pancreatic islet,pancreatic islet,abrogated proliferation
same,tolerability of dose and schedule,[3],well tolerated without evident toxicity
